Values after ≈ are worked out from the molar mass of the structure shown.
conditions: buffer; pH 7.4; 200.0 µM

SMILES	solubility kinetic [µg/mL]
CCOP(=O)(OCC)C(Nc1ccc(F)cc1)c1ccccc1 (stereo not given)	> 50.6
CC(=O)Nc1ccc(C(=O)CN2C(=O)NC3(CCCc4ccccc43)C2=O)c(F)c1 (stereo not given)	53 (≈ 129 µM)
COc1cccc(OC)c1C(=O)NCCc1ccccc1	> 42.8
Cc1cc(F)ccc1NC(=O)Nc1ccc2c(c1)OCO2	< 0.3
Cc1cccn2c(=O)c(C=O)c(N3CCSCC3)nc12	16.2 (≈ 56 µM)
Cc1ccccc1NC(=S)NC(=O)/C=C/c1ccco1	38.3 (≈ 134 µM)
Cc1ccc(C(=O)NCCNC(=O)c2ccccc2)cc1	> 42.4
CC(C)CC1(C)NC(=O)N(CC(=O)Nc2ccc(F)c(F)c2F)C1=O (stereo not given)	48.6 (≈ 136 µM)
COc1ccc(CNC2CC(C)N(C)CC2C)cc1OC.Cl (stereo not given)	50.9
O=C(NCC(=O)N1CCN(c2ccccc2)CC1)c1ccccc1	> 48.5
COc1cc(C2Nc3cccc4cccc(c34)N2)ccc1O	35.5 (≈ 121 µM)
COCC1CCN(Cc2nc(-c3ccc(OC)cc3)no2)CC1	41 (≈ 129 µM)
CC(=O)c1cc(C)ccc1OC(=O)c1ccncc1	35.8 (≈ 140 µM)
Cc1ccc(C(=O)CCC(=O)Nc2ccccc2F)cc1	4.8 (≈ 16.8 µM)
Cc1ccccc1N1CCN(Cc2ccc([N+](=O)[O-])o2)CC1	34.3 (≈ 114 µM)
CN(C)c1ccc(N2C(=O)CC(c3ccccc3)CC2=O)cc1	12.3 (≈ 39.9 µM)
CCOC(=O)Cc1csc(NC(=O)Cc2ccc(Cl)cc2)n1	5.5 (≈ 16.2 µM)
O=C(Cc1ncc(C(F)(F)F)cc1Cl)NCc1cccnc1	> 49.5
CN(c1ccccc1)S(=O)(=O)c1ccc(-c2ccccc2)cc1	< 0.7
Cc1cc(C(=O)NCc2nc(-c3ccccc3)no2)ccc1[N+](=O)[O-]	18.9 (≈ 55.9 µM)
O=C(COC(=O)c1ccc(F)c([N+](=O)[O-])c1)NC(=O)NCc1ccccc1	21.3 (≈ 56.8 µM)
CC(=O)N/C(N)=N/c1nc2cc(C)ccc2o1	3.3 (≈ 14.2 µM)
Cc1ccc2cc(CCl)c(Cl)nc2c1	3.7 (≈ 16.4 µM)
O=C(/C=C/c1cccnc1)c1cccc(O)c1	29.9 (≈ 133 µM)
CCSc1ccccc1C(=O)Nc1ccc2c(c1)OCO2	13.8 (≈ 45.8 µM)

SMILES	solubility kinetic [µg/mL]
O=C(CSc1nncs1)NNC(=O)c1ccccc1Br	> 56
COC(=O)CC(N)c1ccc(Br)cc1.Cl (stereo not given)	> 44.2
NS(=O)(=O)c1ccc(NC(=O)COC(=O)Cn2cnc3ccccc3c2=O)cc1	18 (≈ 43.2 µM)
CC(=O)c1ccc(NC(=S)N2CCN(c3ccccn3)CC2)cc1	3.1 (≈ 9.11 µM)
O=C1NC(=O)N(Cc2ccccc2)C1=O	> 30.6
O=C(CSc1nc2sc3c(c2c(=O)[nH]1)CCC3)NCCO	> 48.8
CCOC(=O)Nc1ccc(C(=O)c2ccncc2)cc1	4 (≈ 14.8 µM)
O=C(Nc1ccc2c(c1)OCO2)C1CC(=O)N(c2cccc(Cl)c2)C1 (stereo not given)	0.9 (≈ 2.51 µM)
Cc1ccc2c(c1)N(CC(=O)NCC1CCCO1)C(=O)CO2 (stereo not given)	> 45.7
CC1=C(C)CC(C(=O)NCc2ccccn2)C(C(=O)O)C1 (stereo not given)	> 43.3
O=C(O)C1C2CCC(C2)C1C(=O)N1CCCC1 (stereo not given)	> 35.6
CCc1noc(C)c1C(=O)OCC(=O)c1ccccc1OC	4.6 (≈ 15.2 µM)
O=C(Oc1ccc2c(c1)O/C(=C\c1ccncc1)C2=O)c1cccs1	2.2 (≈ 6.3 µM)
O=[N+]([O-])c1ncc(Br)cc1Nc1ccccc1	16.3 (≈ 55.4 µM)
C=C(C)c1cccc(C(C)(C)NC(=O)N2CCN(c3ccccc3)CC2)c1	0.3 (≈ 0.825 µM)
CC(C)[C@H](NC(=O)c1ccccc1)C(=O)NC1=NCCS1	44.6 (≈ 146 µM)
COc1ccc2cc(C#N)c(Nc3cccc(F)c3)nc2c1	< 0.2
O=C(O)C1CSC2(c3ccc(F)cc3)CCC(=O)N12 (stereo not given)	> 42.2
O=C1N(Cc2ccccc2)c2ccccc2C12OCCO2	28.9 (≈ 103 µM)
CCOC(=O)N1CCN(CC(O)c2c[nH]c3ccccc23)CC1 (stereo not given)	> 47.6
Cc1cc(C(=O)Nc2ccc(Cl)cc2)c(C)n1Cc1cccs1	2.7 (≈ 7.83 µM)
CCc1ccc2nc(N3CCN(C(=O)C(C)(C)C)CC3)sc2c1	2 (≈ 6.03 µM)
COc1ccc(NC(=O)CCSc2nc(C)cs2)cc1	> 46.3
Cc1ccc(N2CCN(S(=O)(=O)N3CCCCC3)CC2)cc1C	1.8 (≈ 5.33 µM)
O=C(NC(=S)Nc1cccc([N+](=O)[O-])c1)C1CCCCC1	< 0.2

SMILES	solubility kinetic [µg/mL]
CCCCN(C(=O)CSc1ncnc2sccc12)c1c(N)n(Cc2ccccc2)c(=O)[nH]c1=O	3.9 (≈ 7.85 µM)
CC(=O)Nc1ccc(-n2c(C)ccc2C)cc1	> 34.2
O=S(=O)(c1ccc(=S)[nH]c1)N1CCOCC1	21.6 (≈ 83 µM)
CC1=C/C(=C/N(C)C)C(=O)O1	15.7 (≈ 102 µM)
O=C(NC(=S)Nc1ccccc1[N+](=O)[O-])c1ccccc1Cl	1.2 (≈ 3.57 µM)
Cc1nc(-c2ccccc2)ccc1C(=O)O	> 32
CC(NC(=S)NC1CCCCC1)c1ccccc1 (stereo not given)	36.1 (≈ 138 µM)
O=C(c1cccc2ccccc12)N1CCCCC1	34.9 (≈ 146 µM)
CC(C)N(C(=S)Nc1ccc(S(=O)(=O)N2CCOCC2)cc1)c1ccccc1	7.1 (≈ 16.9 µM)
COc1cc2ccccc2cc1C(=O)NC1CCCC1	> 40.4
Cc1ccccc1C(=O)NCC(=O)c1ccccc1	> 38
CNC(=O)COc1ccc(Nc2nnc(C)c3ccccc23)cc1.Cl	> 53.8
O=C(NC1CCCCC1)C(=S)NCc1ccccc1	1.4 (≈ 5.07 µM)
Cc1ccc(C)c(OCCC(=O)OCC(=O)NCc2ccc(F)cc2)c1	3.7 (≈ 10.3 µM)
N/C(=N\OC(=O)c1ccc(Cl)cc1[N+](=O)[O-])c1ccccn1	3 (≈ 9.35 µM)
COC(=O)C(c1ccccc1)C1(O)CC(C)N(C)CC1C (stereo not given)	> 43.7
Cc1cc(NC(=O)C(C)Sc2nc(-c3ccccc3)cc(=O)[nH]2)no1 (stereo not given)	17.4 (≈ 48.8 µM)
C[C@H](NC(=O)c1ccco1)C(=O)Nc1ccc(C#N)cc1	> 42.5
COc1cc(NC(=O)C(C)C)ccc1NC(=O)c1cc2ccccc2o1	0.7 (≈ 1.99 µM)
CC(C)C(=O)Nc1nnc(SCC(=O)NCC2CCCO2)s1 (stereo not given)	> 51.7
S=C(Nc1ccccc1)N1CCC(Cc2ccccc2)CC1	14.5 (≈ 46.7 µM)
O=C(Nc1cccc([N+](=O)[O-])c1)Nc1ccc2c(c1)OCCO2	0.4 (≈ 1.27 µM)
COC(=O)CSC(=S)N1CCCC(C)C1 (stereo not given)	> 37.1
COc1cc2c(cc1OC)CN(C(=O)/C=C/c1ccc(F)cc1)CC2	46.9 (≈ 137 µM)

Continued, values first:

solubility kinetic [µg/mL]	SMILES
1.3 (≈ 3.06 µM)	COCCCNc1ncnc2c1sc1nc(-c3ccco3)c3c(c12)CC(C)(C)OC3
1.9 (≈ 5.81 µM)	C/C(=N/OC(=O)c1ccc(Cl)cc1Cl)c1oc(C)nc1C
8.4 (≈ 23.3 µM)	CC(=O)c1cccc(NC(=O)CNC(=O)Cc2cccc3ccccc23)c1
> 25.5	NC(=S)Nc1cccc(F)c1
19.5 (≈ 63 µM)	Cc1ccc2c(c1)C(=O)C(=O)N2CC1COc2ccccc2O1 (stereo not given)
< 0.3	Cc1cc([N+](=O)[O-])ccc1NC(=O)c1cc2ccccc2o1
0.4 (≈ 1.29 µM)	CCOc1ccc(NC(=O)NC2CCCc3ccccc32)cc1 (stereo not given)
< 0.4	COc1ccc(S(=O)(=O)/C(C#N)=C/Nc2cccc(F)c2)cc1
> 34.5	C/C(=C\C(=O)c1sccc1Cl)N(C)C
23.4 (≈ 82.3 µM)	S=C(NCCCc1ccccc1)NCc1ccccc1
> 35.4	Cc1c(Cl)cccc1NC(=O)c1ccco1
> 46	CC(NC(=O)c1cnccn1)c1ccc(S(N)(=O)=O)cc1 (stereo not given)
> 52.8	O=C(Nc1nnc(-c2ccco2)o1)c1cccc(N2C(=O)CCC2=O)c1
> 51.2	CC(=O)Nc1ccc(Oc2ccc(NC(C)=O)c(NC(C)=O)c2)cc1
37.7 (≈ 139 µM)	CC1CCCCN1C(=O)c1ccc(Br)o1 (stereo not given)
0.5 (≈ 1.73 µM)	COc1ccc(-c2noc(-c3cccs3)n2)cc1OC
> 40.8	C=CCOC(=O)c1cn(CC)c2nc(C)ccc2c1=O
21.1 (≈ 60.2 µM)	O=C(COC(=O)c1cc(=O)[nH]c2ccccc12)NCCc1ccccc1
4.7 (≈ 13.2 µM)	CCCOc1ccc(C(=O)NCC2OCCc3ccccc32)cc1OC (stereo not given)
27.5 (≈ 68.8 µM)	CCOc1ncccc1C(=O)OC(C)C(=O)Nc1ccc(N2CCOCC2)cc1 (stereo not given)
23.4 (≈ 79.7 µM)	CN(C)C(=S)Nc1ccc(Br)cc1Cl
44.5 (≈ 145 µM)	O=C(c1ccoc1)N1CCCC(Nc2ccc(F)c(F)c2)C1 (stereo not given)
> 36.5	Cn1ccsc1=NC(=O)c1cccc(C#N)c1

solubility kinetic [µg/mL]	SMILES
10.6 (≈ 32.4 µM)	O=C1NC2(CCCCC2)C(=O)N1CC(=O)N1CCc2ccccc21
19.6 (≈ 45 µM)	Cc1ccc2c(COC(=O)C3CC(=O)N(c4ccc5c(c4)OCCO5)C3)cc(=O)oc2c1 (stereo not given)
> 38.9	Cc1cc(S(=O)(=O)N2CCCCC2)c(C)s1
> 47.3	Cc1c(C(=O)OCC(=O)N2CCCCC2C)oc2ccccc12 (stereo not given)
42.3 (≈ 127 µM)	O=C(O)C(Cc1ccc(Cl)cc1)Sc1nc2ccccc2[nH]1 (stereo not given)
> 43.5	O=C(COC(=O)c1cc[n+]([O-])cc1)Nc1cccc(F)c1
> 45	CC(=O)N1CCN(C(=O)c2cc(=O)c3ccccc3o2)CC1
> 37.2	Cc1ccc(N2CC(=O)N(CC(=O)O)C2=O)cc1
3.5 (≈ 12.2 µM)	Fc1ccc(CNc2ncnc3cc(Cl)ccc23)cc1
1	Cc1cc(-c2ccc([N+](=O)[O-])cc2)nc2ccccc12.Cl
31.2 (≈ 111 µM)	Cc1ccc(C(=O)NCc2ccc3c(c2)CCO3)cc1C
> 27.2	Cc1oc(C(C)(C)C)cc1C(N)=O
> 29.1	Cc1cc(C)c(NC(N)=S)c(C)c1
43.9 (≈ 128 µM)	O=C(Oc1cc(Cl)cc(Cl)c1)c1cnc2n(c1=O)CCS2
> 45.1	COc1ccc(CN2C(=O)CSC2c2ccncc2)cc1 (stereo not given)
> 46.6	CCC(CO)n1c(=S)[nH]c2cc(OC)c(OC)cc2c1=O (stereo not given)
6.4 (≈ 17.5 µM)	COc1ccc(C(=O)OCC(=O)NC(=O)NC2CCCC2)cc1[N+](=O)[O-]
8.7 (≈ 22.8 µM)	Cn1cccc1C(=O)Nc1ccc(Cl)c(S(=O)(=O)N2CCCCC2)c1
5.7 (≈ 18.4 µM)	O=C(Nc1ccc2oc(=O)ccc2c1)c1ccccc1[N+](=O)[O-]
> 48.2	O=C1C(Cc2ccc3[nH]ccc3c2)NC(=S)N1c1ccccc1 (stereo not given)
1.1 (≈ 3.95 µM)	O=C(NCc1ccc(F)cc1)Nc1ccc(Cl)cc1
8.4 (≈ 24.5 µM)	CCOC(=O)/C=c1\s/c(=C(\C#N)C(N)=O)n(-c2ccccc2)c1=O
> 49.7	CCOC(=O)NC(=O)CN1C(=O)NC2(CCc3ccccc32)C1=O (stereo not given)

— PubChem BioAssay AID1996
